Laboratory results as given in ChEMBL document CHEMBL5303304, “EUbOPEN Chemogenomics Library - IncuCyte” (2023).
Values joined by “and” are separate entries in the source; they are usually repeats but may differ in a detail not shown here. Identical values can stand only once.

Experiments:
Type in all cases: toxicity, cell-based
Fibroblast = experiment: Incucyte cell viability with human fibroblast; conditions: 10 µM, compound concentration 10 uM
U2OS = experiment: Incucyte cell viability with U2OS; conditions: human, 10 µM, compound concentration 10 uM
HEK-293T = experiment: Incucyte cell viability with HEK293T; conditions: human, 10 µM, compound concentration 10 uM
Also: unitless GR value; below 1 slowed growth and below 0 cell loss.

SMILES | Growth Rate (Fibroblast; 0 h, replicate number 1) | Growth Rate (Fibroblast; 6 h, replicate number 1) | Growth Rate (Fibroblast; 18 h, replicate number 1) | Growth Rate (Fibroblast; 24 h, replicate number 1) | Growth Rate (U2OS; 6 h, replicate number 1) | Growth Rate (U2OS; 6 h, replicate number 2) | Growth Rate (U2OS; 18 h, replicate number 1) | Growth Rate (U2OS; 24 h, replicate number 1) | Growth Rate (HEK-293T; 6 h, replicate number 1) | Growth Rate (HEK-293T; 6 h, replicate number 2) | Growth Rate (HEK-293T; 12 h, replicate number 1) | Growth Rate (HEK-293T; 12 h, replicate number 2) | Growth Rate (HEK-293T; 18 h, replicate number 1) | Growth Rate (HEK-293T; 18 h, replicate number 2) | Growth Rate (HEK-293T; 24 h, replicate number 1) | Growth Rate (HEK-293T; 24 h, replicate number 2) | Growth Rate (Fibroblast; 6 h, replicate number 2) | Growth Rate (U2OS; 12 h, replicate number 2) | Growth Rate (Fibroblast; 24 h, replicate number 2) | Growth Rate (U2OS; 18 h, replicate number 2) | other results
CC(=O)c1c(C)c2cnc(Nc3ccc(N4CCNCC4)cn3)nc2n(C2CCCC2)c1=O [PALBOCICLIB] | -0.2 | 0.91 | 0.87 | 0.79 | 0.72 and 0.58 | 0.97 | 0.59 and 0.72 | 0.76 and 0.92 | 0.61 | 0.69 | 0.77 | 0.81 | 0.78 | 0.8 | 0.83 and 0.98 | 0.75 | – | – | – | – | Growth Rate (Fibroblast; 12 h, replicate number 1): 0.92; Growth Rate (Fibroblast; 18 h, replicate number 2): 0.98; Growth Rate (U2OS; 12 h, replicate number 1): 0.87 and 0.84; Growth Rate (HEK-293T; 0 h, replicate number 1): 0.2; Growth Rate (HEK-293T; 0 h, replicate number 2): 0.78
Cn1cc(-c2cnc3ccc4ccc(CS(=O)(=O)NCc5ccccn5)cc4c(=O)c3c2)cn1 [MK-8033] | -1 | 0.98 | – | – | 0.9 | 0.76 | 0.88 | 0.81 | 0.24 | 0 | 0.39 | 0.34 | 0.56 | 0.63 | 0.71 | 0.78 | -0.01 | 0.75 | – | – | Growth Rate (U2OS; 0 h, replicate number 2): 0.2
Cc1cc(-c2nncc3c(C(C)(C)C)c(OCc4ncnn4C)nn23)no1 | -0.5 | 1 | 0.1 | 0.26 | 0.85 | 0.23 | 0.82 | 0.93 | 0.14 | 0.78 | 0.35 | 0.53 | 0.1 | 0.57 | 0.14 | 0.61 | -0.97 | 0.67 | 0.87 | 0.71 | Growth Rate (Fibroblast; 12 h, replicate number 2): 0.98; Growth Rate (Fibroblast; 18 h, replicate number 2): 0.78; Growth Rate (U2OS; 0 h, replicate number 2): -0.99; Growth Rate (U2OS; 24 h, replicate number 2): 0.86; Growth Rate (HEK-293T; 0 h, replicate number 2): 0.72
Cc1ccc(S(=O)(=O)Nc2ccc(-n3nc(C(F)(F)F)cc3C(F)(F)F)cc2)cc1 | – | -0.21 | 0.74 | – | 0.01 | 0.69 | 0.74 | 0.84 | 0.36 | 0.63 | 0.58 | 0.66 | 0.47 | 0.81 | 0.62 | 0.92 | -1 | 0.8 | 0.83 | 0.83 | Growth Rate (Fibroblast; 12 h, replicate number 1): -1; Growth Rate (Fibroblast; 12 h, replicate number 2): 0.78; Growth Rate (U2OS; 12 h, replicate number 1): 0.91; Growth Rate (U2OS; 24 h, replicate number 2): 0.72
CCn1c(=O)c2c(C)c(C(=O)N3CCC(O)CC3)sc2n(CCC(F)(F)F)c1=O | – | – | – | – | – | 0.72 | – | – | 0.41 | – | 0.79 | – | 0.74 | 0.86 | 0.83 | – | – | 0.97 | 0.97 | 0.97 | Growth Rate (Fibroblast; 0 h, replicate number 2): 0.25; Growth Rate (HEK-293T; 0 h, replicate number 1): 0.93; Growth Rate (HEK-293T; 0 h, replicate number 2): 0.32
COc1ccc(CCCN2CCC(COC(c3ccccc3)c3ccccc3)CC2)cc1.Cl | – | – | -0.16 | 0.17 | – | – | – | – | -0.53 | -0.09 | -0.23 | 0.28 | -0.02 | 0.26 | 0.24 | 0.31 | -1 | – | -0.23 | – | Growth Rate (Fibroblast; 12 h, replicate number 1): -0.98; Growth Rate (Fibroblast; 12 h, replicate number 2): -0.74; Growth Rate (Fibroblast; 18 h, replicate number 2): -0.39; Growth Rate (U2OS; 0 h, replicate number 1): 0.33
Fc1ccc(-c2nc(-c3c(F)cccc3F)[nH]c2-c2ccncc2)cc1 | -0.99 | – | – | – | – | – | – | – | – | 0.27 | – | 0.5 | – | 0.62 | – | 0.68 | – | – | – | 0.97 | Growth Rate (Fibroblast; 0 h, replicate number 2): 0.29; Growth Rate (U2OS; 0 h, replicate number 1): -1; Growth Rate (U2OS; 24 h, replicate number 2): 0.76; Growth Rate (HEK-293T; 0 h, replicate number 1): -0.47; Growth Rate (HEK-293T; 0 h, replicate number 2): 0.65
COC[C@@H](C)N[C@H]1CC[C@H](Nc2cc(-c3cccc(NCC4(C#N)CCOCC4)n3)c(Cl)cn2)CC1 | – | 0.06 | -0.12 | -0.09 | 0.79 | 0.56 | 0.59 | 0.79 | -0.07 | – | 0.2 | 0.18 | 0.22 | 0.24 | 0.27 | 0.35 | -0.13 | 0.62 | -0.12 | 0.71 | Growth Rate (Fibroblast; 0 h, replicate number 2): -1; Growth Rate (Fibroblast; 12 h, replicate number 1): -0.08; Growth Rate (Fibroblast; 12 h, replicate number 2): -0.06; Growth Rate (Fibroblast; 18 h, replicate number 2): -0.22; Growth Rate (U2OS; 0 h, replicate number 2): 0.56; Growth Rate (U2OS; 12 h, replicate number 1): 0.88; Growth Rate (U2OS; 24 h, replicate number 2): 0.68
CC(=O)c1c(C)c2cnc(Nc3ccc(N4CCN(CCCCNC(=O)COc5cccc6c5C(=O)N(C5CCC(=O)NC5=O)C6=O)CC4)cn3)nc2n(C2CCCC2)c1=O (stereo not drawn) | – | 0.72 | – | 0.88 | – | 0.97 | – | 1 | 0.75 | – | 0.82 | 0.85 | 0.85 | 0.98 | 0.91 | – | – | – | – | – | Growth Rate (Fibroblast; 0 h, replicate number 2): 0.14; Growth Rate (U2OS; 0 h, replicate number 2): 0.65; Growth Rate (U2OS; 12 h, replicate number 1): 0.99
N[C@@H]1CCCC[C@H]1Oc1ccc2ncc(-c3cc4ccccc4o3)n2n1 | -1 | -0.12 | -0.67 | -0.62 | -0.96 | -0.91 | -0.88 | -0.75 | -0.98 | -0.97 | -0.86 | -0.77 | -0.66 | -0.63 | -0.53 | -0.43 | -0.77 | -0.8 | -0.55 | -0.72 | Growth Rate (Fibroblast; 12 h, replicate number 1): -0.57; Growth Rate (Fibroblast; 12 h, replicate number 2): -0.62; Growth Rate (Fibroblast; 18 h, replicate number 2): -0.65; Growth Rate (U2OS; 0 h, replicate number 1): -0.99; Growth Rate (U2OS; 12 h, replicate number 1): -0.95; Growth Rate (U2OS; 24 h, replicate number 2): -0.63
